From patent publication US20250057959A1, “PHOSPHANE GOLD(I)-N-HETEROCYCLIC CARBENE COMPLEXES FOR TREATING CANCER” (KING FAHD UNIVERSITY OF PETROLEUM AND MINERALS, priority 2023, published 2025)
Entries after “also recorded” stand apart in the source; their conditions may differ.

Legend:
SKOV3-MCTSs = assay: SKOV3-MCTS spheroid volume; type: cell-based, human; settings: for SKOV3-MCTS volume decrease with respect to control: 0.5 μM
Method: To generate single spheroids with defined size, 1.0×10^3/mL SKOV3 cells were seeded 4 days under nonadherent conditions in U-bottom 96-well plates coated twice with 20 mg/mL of poly(2-hydroxyethyl methacrylate) (poly-HEMA; Sigma) in 95% ethanol. Spheroid size was measured at days 0, 3, and 7 after drug treatment initiation using an inverted microscope (Eclipse TS/100, Nikon, Tokyo, Japan) with photomicrographic systems DS camera control unit DS-L2. Spheroid volumes were calculated using the formula (width^2×length×3.14)/6.

SKOV3 cells [1] = assay: In vitro wound healing assay (cell migration); type: cell-based, human
Method: (§1) Cell migration was assessed using the in vitro wound healing assay. Briefly, cells were grown to confluence and then treated with complex 6. After 24 hours of treatment, the medium was removed and cells were washed then scraped with a pipet tip to create a “wound” in the monolayer and washed again. Fresh medium containing 2% FCS was added. Wounds were photographed at times 0, 24, and 48 hours using an inverted microscope (EclipseTS/100, Nikon, Instruments Europe BV Amsterdam, The Netherlands) at magnification 4. Migration was assessed by measuring the cell-free area (in pixels) with ImageJ-NIH (National Institutes of Health) tool software. The cytoskeleton organization was evaluated by culturing SKOV3 cells onto glass coverslips and performing immunofluorescence staining for α-tubulin and F-actin. SKOV3 cells were treated for 24 hours with complex 6, fixed in 4% paraformaldehyde, permeabilized with 0.5% Triton X-100, and incubated overnight with primary antibody (Table 1) at 4° C. Primary antibody was detected using the appropriate secondary antibody together with phallotoxins (Molecular Probes) and TO-PRO-3 (Thermo Fisher Scientific). Images were acquired using an SP8 confocal microscope (Leica).

SKOV3 cells [2] = assay: MTT cell viability assay, SKOV3; type: cell-based, human; settings: 72 hours treatment
Source text: Human epithelial ovarian cancer A2780 cell line and its cisplatin-resistant clone A2780cis were obtained from Sigma-Aldrich (Milano, Italy). SKOV3 (HTB-77) cells were from the American Type Culture Collection (ATCC). The two cell lines were selected to reflect the two different stages of OvCa and different sensitivity to cisplatin. A2780 cell lines were derived from the ovarian tumor tissue of an untreated patient, while SKOV3 was from the ascitic fluids (after metastasis). Cells were authenticated in the laboratory using PowerPlex 16 HS system (Promega) and GeneMapper ID version 3.2.1 to identify DNA short tandem repeats. Cell lines were cultured in RPMI-1640 medium containing 10% fetal bovine serum (FBS) (Gibco, Thermo Fisher Scientific, U.S.A), 1% (v/v) of penicillin (10,000 units/mL)-streptomycin (10 mg/mL), and 1% (v/v) L-glutamine (200 mM) (all from Sigma- Aldrich) at 37° C. in a 5% CO2 fully humidified atmosphere. A2780cis cells were continuously exposed to 1 μM cisplatin to maintain cisplatin resistance. Adipose-derived stem cells (ADSCs) were purchased from Lonza and maintained in mesenchymal-stem-cell growth medium Bulletkit MSCGM (Lonza, Verviers, Belgium).
4.0×10^3/mL A2780, A2780cis, and SKOV3 cells were seeded in 96-well microplates in 100 μL of culture medium. Cells were allowed to adhere for 24 hours and then were treated in triplicate with increasing concentrations of gold compounds (0-1 μM). Cisplatin was included as a reference drug. Cell viability was evaluated using 3-(4,5-dimethylthiazol-2-yl)-2,5-diphenyltetrazolium bromide (MTT) assay (Sigma-Aldrich) after 72 hours of treatment. Half maximal inhibitory concentrations (IC50) were calculated using the CalcuSyn software version 2 (Biosoft, Ferguson, MO, USA). Fold resistance was calculated as the ratio of the IC50 of the A2780cis to that of the parental cell line A2780.

SKOV3 cells [3] = assay: Cytoskeleton organization, immunofluorescence confocal microscopy; type: cell-based, human; settings: 24 hours treatment
Method: as §1

[4] = tested on: thioredoxin reductase (TrxR); settings: OvCa cells treated 24 hours
Method: To evaluate both the thioredoxin reductase (TrxR) and proteasome activity, cells were treated with complex 6 for 24 hours and then lysed in 50 mM Tris-HCl, pH 7.6, 0.1% Triton X-100, 0.9% NaCl. TrxR (EC 1.8.1.9) was assayed using thioredoxin reductase assay kit (Sigma-Aldrich). Enzyme activity was determined by reading the absorbance at 412 nm using a spectrophotometer (Biomate 3 Thermo Spectronic, Thermo Electonic Corporation, Monza, Italy).
The enzymatic activity was normalized to the protein concentration and determined using the Bio-Rad protein assay (protein assay dye reagent concentrate, Bio-Rad Laboratories, Segrate, Italy).

A2780 and A2780cis cells [5] = assay: mitROS generation (MitoSOX red), flow cytometry; type: cell-based, human
Method: (§2) Results were detected by flow cytometry on a BD FACSCanto II flow cytometer. Data were analyzed using BD FACSDiva version 8.0.1 software (BD Biosciences) unless otherwise indicated. To evaluate apoptosis, tumor cells were treated for 48 hours and then stained for 15 minutes with FITC annexin-V (Thermo Fisher Scientific) and 7AAD (BD Pharmingen). […] For B-cell lymphoma/leukemia-2 (Bcl-2) and Bcl-2 associated x protein (Bax) evaluation, cells were fixed and permeabilized using FIX & PERM cell fixation and cell permeabilization kit (Life Technologies). […] The distribution of cells in different cell cycle phases was quantified using ModFit LT 4.0 software (Verity Software House, Topsham, ME, USA).

A2780 and A2780cis cells [6] = assay: Apoptosis by flow cytometry (annexin-V/7AAD, caspase-3,7, BAX, Bcl-2); type: cell-based, human
Method: as §2

A2780 and A2780cis cells [7] = assay: DNA double-strand breaks, γ-H2AX western blot; type: cell-based, human
Method: Whole-cell lysates were prepared using cold RIPA buffer [150 mM NaCl, 50 mM Tris-HCl (pH 8), 0.1% SDS, 1% Igepal, and 0.5% desoxycholate sodium] containing a protease inhibitor cocktail (Roche Diagnostics S.p.a., Milan, Italy), phosphatase inhibitors 1 mM Na3VO4 and 1 mM NaF (Sigma-Aldrich). Protein concentrations were determined using the BioRad protein assay (Bio-Rad Laboratories, Inc., CA, USA). Equal amounts of proteins were mixed with Laemmli buffer, separated in 4-20% SDS-PAGE (Criterion Precast Gel, BioRad), and blotted onto a nitrocellulose membrane (Amersham, GE Healthcare). Membrane strips were blocked with EveryBilot blocking buffer (Bio-Rad) and incubated at 4° C. overnight with primary antibodies probed with the appropriate antibodies (Table 2) and developed using Immobilon Western chemioluminescent HRP substrate. Images were acquired using a ChemiDoc XRS system (Bio-Rad).

## CC(C)c1cccc(C(C)C)c1-n1ccn(-c2c(C(C)C)cccc2C(C)C)[c]1=[Au+][PH](C1CCCCC1)(C1CCCCC1)C1CCCCC1.F[P-](F)(F)(F)(F)F [Complex 6, [Au(IPr)(C18H33P)] PF6]
SKOV3-MCTSs; 3 days
  SKOV3-MCTS volume decrease with respect to control: about 60%
SKOV3-MCTSs; 7 days
  SKOV3-MCTS volume decrease with respect to control: about 75%
SKOV3-MCTSs; 1 μM
  Effect on SKOV3-MCTSs at 1 μM: almost entirely diminished the SKOV3-MCTSs; also recorded: completely destroyed spheroids; also recorded: completely destroyed SKOV3-MCTSs
SKOV3 cells [1]; 24 hours treatment
  SKOV3 migration: decreased the SKOV3 migration
SKOV3 cells [1]; 48 hours after scratch, highest concentration, control about 5%
  Remaining uncovered area (wound): ~70%
SKOV3 cells [2]
  IC50: 580 nM
SKOV3 cells [3]
  F-actin cytoskeleton organization: irregular disposition and organization of the F-actin cytoskeleton
  α-tubulin distribution: did not modify α-tubulin distribution
[4]
  TrxR enzymatic activity: did not modify its enzymatic activity
A2780 and A2780cis cells [5]
  mitROS generation: increased mitochondrial ROS (mitROS) generation in a dose-dependent manner
A2780 and A2780cis cells [6]; 48 hours, complex 6 and auranofin at IC50 and IC75, cisplatin 0.15 μM and 0.50 μM
  Apoptosis (annexin-V / 7AAD positive cells): increased in a dose-dependent manner
A2780 and A2780cis cells [6]; FLICA, flow cytometry
  Caspase-3,7 activation: activated caspase-3,7
A2780 and A2780cis cells [6]; flow cytometry
  BAX expression: induced the proapoptotic BAX
  BCL-2 expression: down-regulated the antiapoptotic BCL-2
A2780 and A2780cis cells [7]
  DNA double-strand breaks (γH2AX): induced DNA-DSBs
